Experiments:
[1] = system: DIO-LE rats maintained on a high fat chow; assay: Cross therapeutic target rat study: reduction of TRL V6 concentration (NMR LipoProfile) after an acute dose; format: in vivo
Experimental: (§1) As a typical example, whole blood samples are collected into 2 ml EDTA blood collection tubes, inverted several times to mix well, and placed on ice. The samples are then centrifuged at approximately 3000 rpm for 10-15 minutes at 4° C. Upon completion of centrifugation, the tube is placed on ice and the plasma is drawn off. The plasma is place into a polypropylene tube and kept at 4° C. until analysis. Samples may be analyzed at any time up to about 4 days after collection. Samples are analyzed for TRL V6 response, as for example by NMR plasma lipoprotein analysis, as for example, the NMR LipoProfile®, the NMR LipoProfile®-II or the NMR LipoProfile®-III lipoprotein tests provided by LipoScience, Inc. of Raleigh, N.C.
(§2) NMR spectral data is analyzed as described in Jeyarajah et al., supra. Lipoprotein subclass concentrations are reported in lipid mass concentration units (TRL subclasses in units of mg/dL triglyceride) or, alternatively, in particle concentration units of nmol/L (nanomoles of particles per liter). The source information (NMR signal amplitude of each subclass) is transformed into these mass or particle concentration units by the analysis software, using a set of conversion factors obtained from chemical lipid and NMR analyses of isolated chylomicron, VLDL, LDL, and HDL subclass standards of normal lipid composition.
The ability of investigational weight loss pharmaceutical agents to reduce the TRL V6 concentration in rats is shown with three compounds targeting different mechanisms of action including a known potent and selective 5-HT2C receptor agonist, a known potent and selective CB-1 receptor antagonist/inverse agonist, and a potent SNDRI (sibutramine). Each of these compounds are known to induce weight loss in rats and thus the biomarker of reduction in TRL V6 concentration correlates to the investigational weight loss pharmaceutical agents' ability to induce weight loss. Conversely, an opiate antagonist, (naltrexone) which is known to be ineffective in inducing weight loss in rats or in overweight and obese human subjects (Malcolm R et al., Int. J. Obes. 1985; 9(5):347-53), is shown to not reduce the TRL V6 concentration in rats, again correlating the biomarker of reduction in TRL V6 concentration to the investigational weight loss pharmaceutical agents' ability to induce weight loss.
DIO-LE rats maintained on a high fat chow are administered either a vehicle dose or an acute dose of test compound. At specified time points post dose, animals are sacrificed and blood is collected in blood sample tubes containing EDTA and processed essentially as described above. Samples are analyzed by NMR LipoProfile® lipoprotein sub-particle test with report of all particle subtypes (specifically the TRL V6 concentration or particle number).

[2] = system: hypertriglyceridemic and overweight and obese but otherwise healthy subjects; assay: Human study with a SNDRI (sibutramine): TRL response to fat load, single-blind crossover vs placebo, NMR LipoProfile III; format: in vivo
Experimental: Note that where TRL V6 response can be equated with the response of a combination of subtypes, it is because the magnitude of the change in signal, which is due to the change of TRL V6 signal, is sufficiently large compared to the base line signal, to be a significant difference (i.e. the signal from TRL V6 in the base line signal dominates the combined signal so that a change in TRL V6 is reliably detected).
as §1, §2
A SNDRI (sibutramine) known to be able to induce weight loss in humans is tested to correlate its ability to reduce TRL V6 response plasma concentrations and V-TRL response in humans in an exploratory biomarker study employing a single-blind, crossover design, comparing sibutramine and placebo in hypertriglyceridemic and overweight and obese but otherwise healthy subjects.
Three cohorts containing 6 subjects each, undergo three periods during the study. Subjects are fasted overnight and two fasting blood draws are obtained, followed by breakfast at approximately 07:00 hours. Placebo or sibutramine is administered at approximately 10:00 hours. Blood sampling is begun approximately 1 hr. after the start of breakfast and continues at hourly intervals for 7 hr., and then every 2 hr. for the next 10 hr. A lunch according to Example fat load 2 is served at approximately 12:00 hours (approximately 60 to 65 g of fat). No other food is permitted until 12 hr. post fat load administration. Subjects are released after the last blood sampling for a 4 to 8-day washout period before return for the second testing period of the study. After the washout period, subjects are again fasted overnight. The procedures are then repeated as in the first testing period of the study except that each subject crosses over to receive the alternate treatment, sibutramine or placebo. Blood samples are collected, processed and analyzed essentially as described in Example 1 above.
TRL V6 responses and V-TRL responses are observed during the period from 5 to 11 hr. post fat load. […] In most subjects, the administration of sibutramine reduced the magnitude of the TRL V6 response and V-TRL response compared to their placebo-treated responses. Thus the reduction of the TRL V6 response and V-TRL response induced by the SNDRI correlates with the SNDRI known ability to induce weight loss in humans.

[3] = rats, 5-HT2C agonist 10 mg/kg, CB-1 antagonist 0.3 mg/kg, SNDRI 3 mg/kg, naltrexone 10 mg/kg oral
[4] = 5 hr. post dose, CB-1 antagonist 0.3 mg/kg, SNDRI 3 mg/kg, rats
[5] = AUC 5-11 hr. post fat load vs placebo, humans
[6] = AUC from lipid load vs placebo, Table 2

Structure (SMILES): O=C1CC[C@@]2(O)[C@H]3Cc4ccc(O)c5c4[C@@]2(CCN3CC2CC2)[C@H]1O5 [Naltrexone, naltrexone]
- TRL V6 level versus baseline at 18 hr. post dose ([1]; 10 mg/kg oral, 18 hr. post dose, rats): unchanged
- effect on circulating TRL V6 levels ([1]; 10 mg/kg orally administrated dose, rats): minimal effect
- time post dose at which TRL V6 plasma concentration returns to baseline [1, 3]: 5 h

Structure (SMILES): CC(C)CC(N(C)C)C1(c2ccc(Cl)cc2)CCC1 (stereo not drawn) [Sibutramine, sibutramine]
- reduction of TRL V6 concentration ([1]; 2 hr. post dose, 3 mg/kg, rats): about 78%
- reduction of circulating concentration of TRL V6 ([1]; 2 hr. post dose, 5-HT2C agonist 10 mg/kg, SNDRI 3 mg/kg, naltrexone 10 mg/kg oral, rats): about 78%
- reduction of TRL V6 concentration [1, 4]: about 78%
- reduction of circulating concentration of TRL V6 [1, 4]: about 78%
- Reduction in TRL V6 Response, T1-(ie 2 hrs) ([1]; T1 (ie 2 hrs) post dose, dose per compound in column Dose (10, 0.3, 3, 10 mg/kg), DIO-LE rats): 78%
- Reduction in TRL V6 Response, T2-(ie 5 hrs) ([1]; T2 (ie 5 hrs) post dose, dose per compound in column Dose, DIO-LE rats): 78%
- Reduction in TRL V6 Response, T3-(ie 18 hrs) ([1]; T3 (ie 18 hrs) post dose, dose per compound in column Dose, DIO-LE rats): 0%
- time post dose at which TRL V6 plasma concentration returns to baseline [1, 3]: ≤ 18 h
- change in mean V-TRL response [2, 5]: statistically significant decrease
- change in the plasma concentrations of TRL V1, V2, V3, V4, or V5 subtypes [2, 5]: does not show a significant change
- decrease in the TRL V6 response (AUC) vs placebo ([2]; AUC 5-11 hr. post fat load, mixed effects model, statistically significant, humans): about 28%
- change in TRL V6+TRL V5 [2, 6]: did not produce a significant change
- change in TRL V6+TRL V5+chylomicrons [2, 6]: did not produce a significant change
- change in TRL V6+chylomicrons [2, 6]: showed a significant change
- effect on TRL V6 response [2, 6]: reduced the TRL V6 response
- Sibutramine/Placebo Ratio of AUC, TRL V5 ([2]; TRL V5, AUC 5-11 hr. from lipid load, P 0.474): 1.10
- Geometric LS Mean of AUC, TRL V5 ([2]; TRL V5, AUC 5-11 hr. time points from lipid load, human plasma, NMR): 222.34
- Sibutramine/Placebo Ratio of AUC, TRL V6 + Chy ([2]; TRL V6 + Chy, AUC 5-11 hr. from lipid load, P 0.004): 0.81
- Geometric LS Mean of AUC, TRL V6 + Chy ([2]; TRL V6 + Chy, AUC 5-11 hr. time points from lipid load, human plasma, NMR): 205.0
- Sibutramine/Placebo Ratio of AUC, TRL V6 + TRL V5 ([2]; TRL V6 + TRL V5, AUC 5-11 hr. from lipid load, P 0.091): 0.88
- Geometric LS Mean of AUC, TRL V6 + TRL V5 ([2]; TRL V6 + TRL V5, AUC 5-11 hr. time points from lipid load, human plasma, NMR): 364.08
- Sibutramine/Placebo Ratio of AUC, TRL V6 + V5 + Chy ([2]; TRL V6 + V5 + Chy, AUC 5-11 hr. from lipid load, P 0.110): 0.89
- Geometric LS Mean of AUC, TRL V6 + V5 + Chy ([2]; TRL V6 + V5 + Chy, AUC 5-11 hr. time points from lipid load, human plasma, NMR): 458.04
- Sibutramine/Placebo Ratio of AUC, TRL V6 ([2]; TRL V6, AUC 5-11 hr. from lipid load, P 0.001): 0.73
- Geometric LS Mean of AUC, TRL V6 ([2]; TRL V6, AUC 5-11 hr. time points from lipid load, human plasma, NMR): 119.35
- Sibutramine/Placebo Ratio of AUC, Chy ([2]; chylomicrons, AUC 5-11 hr. from lipid load, P 0.721): 0.98
- Geometric LS Mean of AUC, Chy ([2]; chylomicrons, AUC 5-11 hr. time points from lipid load, human plasma, NMR): 81.11

Source: patent publication US8355877B2, “System for predicting responsiveness to a pharmaceutical therapy for obesity” (priority 2007, dated 2013)
